Drawing on US11739098B2 (BRISTOL-MYERS SQUIBB COMPANY, priority 2017, dated 2023), this text covers IC50 for 13 compounds.

Some results are limits rather than exact numbers.

Type in all cases: cell-based
For one experiment, the target named is T1, human TLR7 (Homo sapiens, UniProt Q9NYK1).
T1 construct: host or cells: HEK-Blue cells (HEK293-derived reporter line)
T1 sequence (Q9NYK1 27-1049): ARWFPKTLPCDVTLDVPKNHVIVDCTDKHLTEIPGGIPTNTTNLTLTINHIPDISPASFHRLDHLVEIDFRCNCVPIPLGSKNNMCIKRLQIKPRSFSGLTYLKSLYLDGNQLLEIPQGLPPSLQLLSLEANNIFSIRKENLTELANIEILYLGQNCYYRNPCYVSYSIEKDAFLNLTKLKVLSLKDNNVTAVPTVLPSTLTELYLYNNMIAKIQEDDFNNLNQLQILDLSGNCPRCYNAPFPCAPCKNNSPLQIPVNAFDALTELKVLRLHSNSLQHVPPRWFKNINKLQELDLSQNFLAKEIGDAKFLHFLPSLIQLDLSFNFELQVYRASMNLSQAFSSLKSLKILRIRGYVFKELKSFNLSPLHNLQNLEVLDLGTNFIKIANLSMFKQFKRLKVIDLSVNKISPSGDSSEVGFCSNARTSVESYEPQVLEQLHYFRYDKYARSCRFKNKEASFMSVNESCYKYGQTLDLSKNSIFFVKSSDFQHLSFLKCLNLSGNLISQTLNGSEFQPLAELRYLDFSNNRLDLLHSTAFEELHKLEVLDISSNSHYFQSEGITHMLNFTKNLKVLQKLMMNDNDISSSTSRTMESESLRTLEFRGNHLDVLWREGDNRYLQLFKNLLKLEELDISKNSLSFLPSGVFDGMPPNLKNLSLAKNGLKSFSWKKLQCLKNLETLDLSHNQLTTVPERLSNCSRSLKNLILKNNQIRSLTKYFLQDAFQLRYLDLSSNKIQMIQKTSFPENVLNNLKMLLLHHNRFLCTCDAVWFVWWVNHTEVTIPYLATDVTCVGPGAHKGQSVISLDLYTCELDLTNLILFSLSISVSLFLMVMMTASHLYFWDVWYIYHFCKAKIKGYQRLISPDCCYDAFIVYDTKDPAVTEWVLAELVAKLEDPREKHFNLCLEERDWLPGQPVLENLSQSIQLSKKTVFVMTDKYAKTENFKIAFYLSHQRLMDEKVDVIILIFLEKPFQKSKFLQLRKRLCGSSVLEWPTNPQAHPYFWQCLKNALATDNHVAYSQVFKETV
Kind of experiment: TLR7 inhibition reporter assay (HEK-Blue cells, SEAP reporter, gardiquimod stimulation). As to conditions: HEK-Blue cells overexpressing human TLR7, SEAP reporter, gardiquimod 7.5 μM. A digest of the protocol:
(§1)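 HEK-Blue cells overexpressing human TLR7, TLR8 or TLR9 (NF-κB/AP-1-driven SEAP) pre-treated 30 min at room temperature with compound (0.05 nM–50 μM), then stimulated with gardiquimod 7.5 μM (TLR7), R848 15.9 μM (TLR8) or ODN2006 5 nM (TLR9). SEAP read colorimetrically after 22 h at 37 °C; % inhibition calculated.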
(In general: A reporter such as luciferase makes a cellular process visible.)

The target in a further experiment is T2, human TLR8 (Homo sapiens, UniProt Q9NR97).
T2 construct: host or cells: HEK-Blue cells (HEK293-derived reporter line)
T2 sequence (Q9NR97 27-1041): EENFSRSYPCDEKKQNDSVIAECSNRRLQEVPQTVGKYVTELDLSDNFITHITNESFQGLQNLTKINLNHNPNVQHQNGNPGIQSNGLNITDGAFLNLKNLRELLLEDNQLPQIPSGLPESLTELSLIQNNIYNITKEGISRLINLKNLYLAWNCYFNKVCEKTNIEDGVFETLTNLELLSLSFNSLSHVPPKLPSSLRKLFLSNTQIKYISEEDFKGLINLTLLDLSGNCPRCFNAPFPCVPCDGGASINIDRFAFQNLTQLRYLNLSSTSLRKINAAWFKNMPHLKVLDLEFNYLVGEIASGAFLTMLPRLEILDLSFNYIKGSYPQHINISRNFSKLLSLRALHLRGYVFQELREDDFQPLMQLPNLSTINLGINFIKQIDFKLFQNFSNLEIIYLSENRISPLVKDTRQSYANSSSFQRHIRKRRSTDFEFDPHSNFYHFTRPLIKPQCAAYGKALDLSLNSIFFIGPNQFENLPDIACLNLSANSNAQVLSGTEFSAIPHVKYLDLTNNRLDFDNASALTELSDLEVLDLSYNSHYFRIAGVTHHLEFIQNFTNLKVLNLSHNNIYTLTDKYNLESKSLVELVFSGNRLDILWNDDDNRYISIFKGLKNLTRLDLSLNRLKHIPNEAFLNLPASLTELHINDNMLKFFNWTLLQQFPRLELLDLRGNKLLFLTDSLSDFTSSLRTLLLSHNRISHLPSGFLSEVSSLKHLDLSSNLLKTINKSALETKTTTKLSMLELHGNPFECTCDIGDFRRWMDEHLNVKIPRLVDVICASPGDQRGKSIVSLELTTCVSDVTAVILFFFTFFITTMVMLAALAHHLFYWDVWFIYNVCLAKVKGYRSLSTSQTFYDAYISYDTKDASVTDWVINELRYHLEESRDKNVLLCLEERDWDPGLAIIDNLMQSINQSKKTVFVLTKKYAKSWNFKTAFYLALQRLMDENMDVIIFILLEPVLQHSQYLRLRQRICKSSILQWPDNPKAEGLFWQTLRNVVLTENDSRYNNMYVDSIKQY
In words: TLR8 inhibition reporter assay (HEK-Blue cells, SEAP reporter, R848 stimulation). As to conditions: HEK-Blue cells overexpressing human TLR8, SEAP reporter, R848 15.9 μM. Summed up:
as §1

Another experiment concerns the target T3, human TLR9 (Homo sapiens, UniProt Q9NR96).
T3 construct: host or cells: HEK-Blue cells (HEK293-derived reporter line)
T3 sequence (Q9NR96 26-1032): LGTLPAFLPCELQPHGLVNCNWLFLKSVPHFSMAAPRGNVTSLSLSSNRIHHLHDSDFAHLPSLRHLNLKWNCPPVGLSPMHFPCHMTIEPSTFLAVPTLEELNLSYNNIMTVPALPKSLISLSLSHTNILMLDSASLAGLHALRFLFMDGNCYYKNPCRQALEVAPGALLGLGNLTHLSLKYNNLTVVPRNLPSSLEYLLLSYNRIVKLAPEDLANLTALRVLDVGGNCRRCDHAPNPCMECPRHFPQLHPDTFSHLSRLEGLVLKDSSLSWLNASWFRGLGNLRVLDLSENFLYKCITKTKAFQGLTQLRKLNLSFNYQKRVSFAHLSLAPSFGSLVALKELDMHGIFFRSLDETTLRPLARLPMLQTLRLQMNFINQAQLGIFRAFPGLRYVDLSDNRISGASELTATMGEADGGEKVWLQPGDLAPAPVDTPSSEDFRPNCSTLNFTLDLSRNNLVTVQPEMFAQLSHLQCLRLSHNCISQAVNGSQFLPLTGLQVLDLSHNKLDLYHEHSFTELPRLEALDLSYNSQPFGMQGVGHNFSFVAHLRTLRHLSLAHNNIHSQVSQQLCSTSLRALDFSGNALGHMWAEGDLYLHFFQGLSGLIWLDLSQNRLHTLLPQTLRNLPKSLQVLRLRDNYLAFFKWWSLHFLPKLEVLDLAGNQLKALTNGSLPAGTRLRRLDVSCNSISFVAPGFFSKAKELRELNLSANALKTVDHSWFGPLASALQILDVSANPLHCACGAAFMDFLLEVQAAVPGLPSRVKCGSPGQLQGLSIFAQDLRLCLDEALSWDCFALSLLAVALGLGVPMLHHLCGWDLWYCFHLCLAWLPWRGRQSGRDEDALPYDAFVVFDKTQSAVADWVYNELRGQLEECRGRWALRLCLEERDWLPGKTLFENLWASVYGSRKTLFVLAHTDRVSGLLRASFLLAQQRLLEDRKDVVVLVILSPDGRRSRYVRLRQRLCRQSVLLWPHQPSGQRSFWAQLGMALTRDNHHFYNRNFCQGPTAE
Kind of experiment: TLR9 inhibition reporter assay (HEK-Blue cells, SEAP reporter, ODN2006 stimulation). The settings on record: HEK-Blue cells overexpressing human TLR9, SEAP reporter, ODN2006 5 nM. A digest of the protocol:
as §1

Turning to `COCCN1CCC(c2ccc3[nH]c(-c4cc(C)n5ncnc5c4)c(C(C)C)c3c2)CC1` [Example 779, 7-(3-isopropyl-5-(1-(2-methoxyethyl)piperidin-4-yl)-1H-indol-2-yl)-5-methyl-[1,2,4]triazolo[1,5-a]pyridine], the values for the IC50 on human TLR7, on human TLR8 and at human TLR9 were under 100 nM, under 100 nM and 1000 to 50000 nM, respectively.

`CCc1c(-c2ccn3ccnc3c2)[nH]c2ccc(C3CCNCC3)cc12` [Example 202, 7-(3-ethyl-5-(piperidin-4-yl)-1H-indol-2-yl)imidazo[1,2-a]pyridine]: the half-maximal inhibitory concentration (IC50) on human TLR7 was in the range of 1000 to 50000 nM; against human TLR8 it was 1000 to 50000 nM; against human TLR9, 100 to 1000 nM.

For `Cc1cc(-c2[nH]c3ccc(C4CCN(C(=O)CN(C)C)CC4)cc3c2C(C)C)cn2nnnc12` [Example 477, 2-(dimethylamino)-1-(4-(3-isopropyl-2-(8-methyltetrazolo[1,5-a]pyridin-6-yl)-1H-indol-5-yl)piperidin-1-yl)ethan-1-one], the half-maximal inhibitory concentration (IC50) against human TLR7 is under 100 nM; against human TLR8, under 100 nM; against human TLR9, 1000 to 50000 nM.

For the compound `CC(C)c1c(-c2ccc3cnnn3c2)[nH]c2ccc(C3CCN(C(=O)CN(C)C)CC3)cc12` [Example 464, 1-(4-(2-([1,2,3]triazolo[1,5-a]pyridin-6-yl)-3-isopropyl-1H-indol-5-yl)piperidin-1-yl)-2-(dimethylamino)ethan-1-one], the IC50 at human TLR7, against human TLR8 and on human TLR9 was 100 to 1000 nM in each case.

Take `CC(C)c1c(-c2ccnc3[nH]ncc23)[nH]c2cc(C(F)(F)F)c(C3CCN(CC4CCNC4)CC3)cc12` (stereo not drawn) [Example 851, 4-(3-isopropyl-5-(1-(pyrrolidin-3-ylmethyl)piperidin-4-yl)-6-(trifluoromethyl)-1H-indol-2-yl)-1H-pyrazolo[3,4-b]pyridine]: the IC50 at human TLR7 was under 100 nM; against human TLR8, 100 to 1000 nM; against human TLR9, 100 to 1000 nM.

`Cc1nnn2ccc(-c3[nH]c4ccc(C5CCN(Cc6ncn(C)n6)CC5)cc4c3C(C)C)cc12` [Example 889, 5-(3-isopropyl-5-(1-((1-methyl-1H-1,2,4-triazol-3-yl)methyl)piperidin-4-yl)-1H-indol-2-yl)-3-methyl-[1,2,3]triazolo[1,5-a]pyridine]: the half-inhibitory concentration (IC50) against human TLR7 is under 100 nM; against human TLR8 it was under 100 nM; against human TLR9 it was 1000 to 50000 nM.

Regarding `Cc1cc(-c2[nH]c3ccc(C4CCN(C(=O)CCN5CCOCC5)CC4)cc3c2C(C)C)cn2nnnc12` [Example 627, 1-(4-(3-isopropyl-2-(8-methyltetrazolo[1,5-a]pyridin-6-yl)-1H-indol-5-yl)piperidin-1-yl)-3-morpholinopropan-1-one], the values for the IC50 against human TLR7, at human TLR8 and at human TLR9 were under 100 nM, under 100 nM and 1000 to 50000 nM, respectively.

As to `CC(C)c1c(-c2cnc3ccnn3c2)[nH]c2ccc(C3CCN(C(=O)CN(C)C)CC3)cc12` [Example 502, 2-(dimethylamino)-1-(4-(3-isopropyl-2-(pyrazolo[1,5-a]pyrimidin-6-yl)-1H-indol-5-yl)piperidin-1-yl)ethan-1-one], the IC50 is 1000 to 50000 nM against human TLR7, over 3130 nM on human TLR8 and 100 to 1000 nM on human TLR9.

Take `COc1cc(-c2[nH]c3ccc(C4CCN(CC(C)(C)O)CC4)cc3c2C(C)C)cn2ccnc12` [Example 775, 1-(4-(3-isopropyl-2-(8-methoxyimidazo[1,2-a]pyridin-6-yl)-1H-indol-5-yl)piperidin-1-yl)-2-methylpropan-2-ol]: the IC50 is under 100 nM against human TLR7, under 100 nM against human TLR8 and 100 to 1000 nM against human TLR9.

On to `Cc1c(-c2ccnc3[nH]cc(-c4ccccc4)c23)[nH]c2ccc(C3CCNCC3)cc12` [Example 223, 4-(3-methyl-5-(piperidin-4-yl)-1H-indol-2-yl)-3-phenyl-1H-pyrrolo[2,3-b]pyridine], for which the figures for the IC50 at human TLR7, on human TLR8 and against human TLR9 were 1000 to 50000 nM, 1000 to 50000 nM and 100 to 1000 nM, respectively.

`CC(C)c1c(-c2ncnn3cccc23)[nH]c2ccc(C3CCN(CC(=O)N(C)C)CC3)cc12` [Example 424, 2-(4-(3-isopropyl-2-(pyrrolo[2,1-f][1,2,4]triazin-4-yl)-1H-indol-5-yl)piperidin-1-yl)-N,N-dimethylacetamide]: the half-maximal inhibitory concentration (IC50) on human TLR7, against human TLR8 and against human TLR9 was 100 to 1000 nM in each case.

Consider `CC(=O)N[C@H]1CCN(CC(=O)N2CCC(c3ccc4[nH]c(-c5ccnc6[nH]ncc56)c(C(C)C)c4c3)CC2)C1` [Example 581, (S)—N-(1-(2-(4-(3-isopropyl-2-(1H-pyrazolo[3,4-b]pyridin-4-yl)-1H-indol-5-yl)piperidin-1-yl)-2-oxoethyl)pyrrolidin-3-yl)acetamide], for which the IC50 was under 100 nM on human TLR7, under 100 nM against human TLR8 and 1000 to 50000 nM against human TLR9.

Take `CCc1c(-c2ccnc3[nH]cc(Cl)c23)[nH]c2ccc(C3CCNCC3)cc12` [Example 39, 3-chloro-4-(3-ethyl-5-(piperidin-4-yl)-1H-indol-2-yl)-1H-pyrrolo[2,3-b]pyridine]: the IC50 at human TLR7 fell in the range of 100 to 1000 nM; at human TLR8, 100 to 1000 nM; against human TLR9 it was 1000 to 50000 nM.

Broadly, the IC50 is the midpoint of a concentration-inhibition curve. A low value points to higher potency.
